Values joined by “and” are separate entries in the source; they are usually repeats but may differ in a detail not shown here. Equal entries are not always repeated. Where two headings read alike, the source gives them in different places.

A short description of series [1]: T1-weighted MR imaging and T1 analysis of solution phantoms (3T and 14.1T). The class given is physicochemical. On the procedure: (§1) 14.1T MR imaging and T1 measurements were performed on a General Electric/Bruker Omega 600WB 14.1T imaging spectrometer fitted with accustar shielded gradient coils at 25° C. For solution phantoms, 50 […], of 60, 40 and 20 μM Gd(III) (DOTA-Gd(III) and Gd(III)-AuNP) in complete cell media were added to flame-sealed 5¾″ Pasteur pipettes and centrifuged at 4.0° C. and 100×g for 5.0 minutes. Capillaries were then placed in a custom-made glass capillary holder and imaged in a 20 mm birdcage coil. For cell phantoms, approximately 1.5×10^6 NIH/3T3 cells were incubated with 20 or 5.0 μM ([Gd(III)]) Gd(III)-AuNP or DOTA-Gd(III) for 24 hours, rinsed two times with DPBS, and harvested with trypsin. After addition of complete media (1.0 mL total volume) cells were added to flame-sealed 5¾″ Pasteur pipettes and centrifuged at 4.0° C. and 100×g for 5.0 minutes. Capillaries were then placed in a custom-made glass capillary holder and imaged in a 10 mm birdcage coil. Spin lattice relaxation times (T1) were measured using a saturation recovery pulse sequence with static TE (10.18 ms) and variable TR (350, 500, 750, 1000, 1500, 2500, 4000, 7500, 15000 ms) values. […]

Series [2] deals with NIH/3T3 cells. As to the kind of experiment: 14.1T T1-weighted MR imaging and T1 analysis of labeled cell pellets. The format is cell-based. To be noted: 24 hours, about 10^6 cells. How it is done:
as §1

The subject of series [3] is NIH/3T3 and HeLa cells. The series is described as follows: Cell counting and percent cell viability (Guava ViaCount flow cytometry). The class given is cell-based. Conditions: any of the conditions tested. On the procedure:
Cell Counting and Percent Cell Viability Determination Using a Guava EasyCyte Mini Personal Cell Analyzer (PCA) Flow Cytometry System. Cells were counted and percent cell viability determined via a Guava EasyCyte mini personal cell analyzer (Guava Technologies, Hayward, Calif., USA). Specifically, after cell harvesting an aliquot (10 or 20 μL) of the cell suspensions were mixed with Guava ViaCount reagent (final sample volume of 200 μL) and allowed to stain at room temperature for at least 5 minutes (no longer than 20 minutes). Stained samples were then vortexed for 5 seconds, after which cells were counted and percent cell viability determined via manual analysis using the ViaCount software module. For each sample, 1000 events were acquired with dilution factors that were determined based upon optimum machine performance (approximately 50-200 cells/μL).
To determine the efficacy of cellular uptake, NIH/3T3 and HeLa cells were labeled with increasing concentrations of DNA-Gd(III)-AuNPs or DOTA-Gd(III) for different amounts of time. Following agent incubation, cells were rinsed with DPBS, counted and then percent viability was assessed via flow cytometry. Gd(III) and Au content were determined via ICP-MS of acid digested samples. […] At all concentrations the Gd(III) uptake was >50-fold higher for DNA-Gd(III)-AuNPs than DOTA-Gd(III). […]
In general terms: In flow cytometry, cells or beads pass a laser one at a time.

For series [4] the following is noted: data taken from Merbach et al., 37° C., cited from earlier work.

With `O=C([O-])CN1CCN(CC(=O)[O-])CCN(CC(=O)O)CCN(CC(=O)[O-])CC1.[Gd+3]` [DOTA-Gd(III)], the “reduction in T1, solution phantoms” value in series [1] (14.1T, 25° C., 60 μM Gd(III), complete cell media) is given as 31%. In addition, the “r1 600 MHz (14.1T)” value in series [1] (per Gd(III) (ionic), image-based, cell media at 25° C.) is 2.1 mM⁻¹ s⁻¹ and 2.2 mM⁻¹ s⁻¹. Further, the “T1 reduction of labeled cell pellets” value in series [2] (5.0 μM Gd(III) incubation) and in series [2] (20 μM Gd(III) incubation) was “no significant difference from control cell pellets” throughout. Besides, in series [3], the “cell toxicity or cell number variation” value was “no evidence of cell toxicity or cell number variation”. The “r1 60 MHz (1.41T)” value in series [4] is 3.2^c mM^−1s^−1; in series [4] (listed as unconjugated Gd(III) complex), 3.2 mM⁻¹ s⁻¹.

The values are drawn from US20120269730A1, “Intracellular Delivery of Contrast Agents with Functionalized Nanoparticles” (Northwestern University, priority 2009, published 2012).
